Assay results from patent publication US20110165232A1, “Use of Opioid Antagonists for the Preparation of a Medicament in the Treatment of Retinal Degenerative Diseases” (AK KIMYA ITHALAT-IHRACAT VE SANAYII ANONIM SIRKETI, priority 2008, published 2011).

Legend:
[1] = test system: age related macular degeneration; assay: Case reports: low dose naltrexone regimen in patients with age related macular degeneration; format: in vivo, human; conditions: elderly person with age related macular degeneration, 4.5 mg per day at bedtime
Source text: An […] has had age related macular degeneration for the last 11 years of […] life, experiencing progressive blurring in the center of […] vision. The degeneration led to loss of central vision […] from many daily activities. It […] very difficult to lead an independent life.
An […] has had age related macular degeneration for the last 10 years […]. […] experienced a loss of central vision […] to differentiate the colors of the surrounding objects and letters in the newspapers. […] […] began to differentiate the colors of the objects shown to […]; […] started to differentiate the big printed letters in the newspapers.

beta-endorphins = conditions: normal volunteers, LDN at bedtime, in the following days; cited from earlier work
Met-enkephalin = conditions: animal research, Ref 7; cited from earlier work
human tumors = conditions: laboratory studies, low dose naltrexone methodology; cited from earlier work

In the case of O=C1CC[C@@]2(O)[C@H]3Cc4ccc(O)c5c4[C@@]2(CCN3CC2CC2)[C@H]1O5 [naltrexone], the quality of vision [1] was “the quality of their vision started to improve”, the “time after initiation of therapy until vision began to improve” value [1] was “Approximately 50 days” and the quality of vision ([1]; listed as low dose naltrexone) was “improvement in the quality of their vision”. For the same compound, the “time after initiation of therapy until vision began to improve” value ([1]; listed as low dose naltrexone) was 50 to 60 days, the “levels of beta-endorphins in blood” value (beta-endorphins) was “higher levels of beta-endorphins in their blood” and the Met-enkephalin levels (Met-enkephalin) was “marked increase in Met-enkephalin levels”. For the same compound, the “inhibition of human tumors” value (human tumors) was “inhibition of different human tumors”.
